Test results: US8524745B2 (Allergan, Inc., priority 2011, dated 2013)

Target: T1, CCR2 (Homo sapiens, UniProt P41597)
T1 construct: expressed in transfected cells
Experiment: CCR2 calcium activity assay on FLIPR Tetra in HEK-Gqi5 cells stably expressing CCR2
Format: cell-based

T1 sequence (P41597 whole entry, species assumed): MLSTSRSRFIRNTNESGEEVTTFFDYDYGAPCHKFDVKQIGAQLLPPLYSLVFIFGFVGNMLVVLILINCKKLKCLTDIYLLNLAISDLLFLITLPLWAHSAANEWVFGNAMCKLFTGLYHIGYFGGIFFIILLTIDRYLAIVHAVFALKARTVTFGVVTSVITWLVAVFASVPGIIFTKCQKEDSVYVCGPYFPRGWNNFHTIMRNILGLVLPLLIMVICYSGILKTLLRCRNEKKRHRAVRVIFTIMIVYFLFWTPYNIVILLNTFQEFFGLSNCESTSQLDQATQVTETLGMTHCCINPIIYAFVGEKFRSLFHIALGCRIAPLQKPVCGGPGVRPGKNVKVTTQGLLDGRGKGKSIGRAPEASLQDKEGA

CCR2 % ANTAG | IC50 | SMILES
84% | – | Cn1sc(=O)c2cc(S(=O)(=O)Nc3cccc(Cl)c3)ccc21 [N-(3-chlorophenyl)-1-methyl-3-oxo-1,3-dihydro-2,1-benzisothiazole-5-sulfonamide]
86% | 1190 nM | CSc1cccc(NS(=O)(=O)c2ccc3c(c2)c(=O)sn3C)c1 [1-methyl-N-[3-(methylthio)phenyl]-3-oxo-1,3-dihydro-2,1-benzisothiazole-5-sulfonamide]
91% | 2190 nM | Cc1cc(NS(=O)(=O)c2ccc3c(c2)c(=O)sn3C)c(NS(=O)(=O)c2cccs2)cc1C [N-{4,5-dimethyl-2-[(2-thienylsulfonyl)amino]phenyl}-1-methyl-3-oxo-1,3-dihydro-2,1-benzisothiazole-5-sulfonamide]
102% | 377 nM | Cc1ccc(NS(=O)(=O)c2cccs2)c(NS(=O)(=O)c2ccc3c(c2)c(=O)sn3C)c1 [1-methyl-N-{5-methyl-2-[(2-thienylsulfonyl)amino]phenyl}-3-oxo-1,3-dihydro-2,1-benzisothiazole-5-sulfonamide]
90% | 1100 nM | Cn1sc(=O)c2cc(S(=O)(=O)Nc3ccccc3NS(=O)(=O)c3nnc[nH]3)ccc21 [1-methyl-3-oxo-N-{2-[(4H-1,2,4-triazol-3-ylsulfonyl)amino]phenyl}-1,3-dihydro-2,1-benzisothiazole-5-sulfonamide]
60% | 1300 nM | COc1ccc(NS(=O)(=O)c2ccc3c(c2)c(=O)sn3C)c(NS(=O)(=O)c2cccs2)c1 [N-{4-methoxy-2-[(2-thienylsulfonyl)amino]phenyl}-1-methyl-3-oxo-1,3-dihydro-2,1-benzisothiazole-5-sulfonamide]
79% | 1660 nM | Cn1sc(=O)c2cc(S(=O)(=O)Nc3cc(Cl)c(Cl)cc3Cl)ccc21 [1-methyl-3-oxo-N-(2,4,5-trichlorophenyl)-1,3-dihydro-2,1-benzisothiazole-5-sulfonamide]
67% | 2450 nM | COc1ccc(S(=O)(=O)Nc2ccccc2NS(=O)(=O)c2ccc3c(c2)c(=O)sn3C)cc1 [N-(2-{[(4-methoxyphenyl)sulfonyl]amino}phenyl)-1-methyl-3-oxo-1,3-dihydro-2,1-benzisothiazole-5-sulfonamide]
87% | 522 nM | Cn1sc(=O)c2cc(S(=O)(=O)Nc3cc(C(F)(F)F)c(Cl)cc3NS(=O)(=O)c3cccs3)ccc21 [N-{4-chloro-2-[(2-thienylsulfonyl)amino]-5-(trifluoromethyl)phenyl}-1-methyl-3-oxo-1,3-dihydro-2,1-benzisothiazole-5-sulfonamide]
61% | – | Cn1sc(=O)c2cc(S(=O)(=O)Nc3ccccc3CNS(=O)(=O)c3cccs3)ccc21 [1-methyl-3-oxo-N-(2-{[(2-thienylsulfonyl)amino]methyl}phenyl)-1,3-dihydro-2,1-benzisothiazole-5-sulfonamide]
93% | 1240 nM | Cn1sc(=O)c2cc(S(=O)(=O)N[C@@H]3CCCC[C@@H]3NS(=O)(=O)c3ccc(Cl)c(C(F)(F)F)c3)ccc21 (relative stereo) [rel-N-[(1R,2S)-2-({[4-chloro-3-(trifluoromethyl)phenyl]sulfonyl}amino)cyclohexyl]-1-methyl-3-oxo-1,3-dihydro-2,1-benzisothiazole-5-sulfonamide]
31% | – | Cn1sc(=O)c2cc(S(=O)(=O)Nc3ccc(C#N)cc3NS(=O)(=O)c3cccs3)ccc21 [N-{4-cyano-2-[(2-thienylsulfonyl)amino]phenyl}-1-methyl-3-oxo-1,3-dihydro-2,1-benzisothiazole-5-sulfonamide]
78% | 210 nM | COc1ccc(S(=O)(=O)Nc2ccc(Cl)cc2NS(=O)(=O)c2ccc3c(c2)c(=O)sn3C)cc1 [N-(5-chloro-2-{[(4-methoxyphenyl)sulfonyl]amino}phenyl)-1-methyl-3-oxo-1,3-dihydro-2,1-benzisothiazole-5-sulfonamide]
94% | 2070 nM | Cn1sc(=O)c2cc(S(=O)(=O)Nc3ccccc3NS(=O)(=O)c3cc(C(F)(F)F)cc(C(F)(F)F)c3)ccc21 [N-[2-({[3,5-bis(trifluoromethyl)phenyl]sulfonyl}amino)phenyl]-1-methyl-3-oxo-1,3-dihydro-2,1-benzisothiazole-5-sulfonamide]
99% | 1810 nM | Cn1sc(=O)c2cc(S(=O)(=O)Nc3ccccc3NS(=O)(=O)c3cc(Cl)ccc3Cl)ccc21 [N-(2-{[(2,5-dichlorophenyl)sulfonyl]amino}phenyl)-1-methyl-3-oxo-1,3-dihydro-2,1-benzisothiazole-5-sulfonamide]
73% | 1940 nM | Cn1sc(=O)c2cc(S(=O)(=O)Nc3cccc4c3OCO4)ccc21 [N-1,3-benzodioxol-4-yl-1-methyl-3-oxo-1,3-dihydro-2,1-benzisothiazole-5-sulfonamide]
104% | 1410 nM | COc1ccc(NS(=O)(=O)c2cccs2)c(NS(=O)(=O)c2ccc3c(c2)c(=O)sn3C)c1 [N-{5-methoxy-2-[(2-thienylsulfonyl)amino]phenyl}-1-methyl-3-oxo-1,3-dihydro-2,1-benzisothiazole-5-sulfonamide]
22% | – | Cn1sc(=O)c2cc(S(=O)(=O)NC3CCN(S(=O)(=O)c4cccs4)C3)ccc21 (stereo not shown) [1-methyl-3-oxo-N-[1-(2-thienylsulfonyl)pyrrolidin-3-yl]-1,3-dihydro-2,1-benzisothiazole-5-sulfonamide]
94% | 1940 nM | CCc1ccc(NS(=O)(=O)c2cccs2)c(NS(=O)(=O)c2ccc3c(c2)c(=O)sn3C)c1 [N-{5-ethyl-2-[(2-thienylsulfonyl)amino]phenyl}-1-methyl-3-oxo-1,3-dihydro-2,1-benzisothiazole-5-sulfonamide]
90% | 4320 nM | CC(C)n1sc(=O)c2cc(S(=O)(=O)Nc3ccccc3NS(=O)(=O)c3cccs3)ccc21 [1-isopropyl-3-oxo-N-{2-[(2-thienylsulfonyl)amino]phenyl}-1,3-dihydro-2,1-benzisothiazole-5-sulfonamide]
85% | – | Cn1sc(=O)c2cc(S(=O)(=O)Nc3cccc(SC(F)(F)F)c3)ccc21 [1-methyl-3-oxo-N-{3-[(trifluoromethyl)thio]phenyl}-1,3-dihydro-2,1-benzisothiazole-5-sulfonamide]
100% | 412 nM | Cn1sc(=O)c2cc(S(=O)(=O)Nc3ccccc3NS(=O)(=O)c3ccc(Cl)c(C(F)(F)F)c3)ccc21 [N-[2-({[4-chloro-3-(trifluoromethyl)phenyl]sulfonyl}amino)phenyl]-1-methyl-3-oxo-1,3-dihydro-2,1-benzisothiazole-5-sulfonamide]
94.08% | 1180 nM | Cn1sc(=O)c2cc(S(=O)(=O)Nc3ccc(Cl)c(Cl)c3)ccc21 [N-(3,4-dichlorophenyl)-1-methyl-3-oxo-1,3-dihydro-2,1-benzisothiazole-5-sulfonamide]
88% | 240 nM | Cn1sc(=O)c2cc(S(=O)(=O)Nc3cc(Cl)ccc3NS(=O)(=O)c3ccc(Cl)c(C(F)(F)F)c3)ccc21 [N-[5-chloro-2-({[4-chloro-3-(trifluoromethyl)phenyl]sulfonyl}amino)phenyl]-1-methyl-3-oxo-1,3-dihydro-2,1-benzisothiazole-5-sulfonamide]
